6 compounds from paper PMC9686985, “Chimeric Peptides Derived from Bovine Lactoferricin and Buforin II: Antifungal Activity against Reference Strains and Clinical Isolates of Candida spp” (Antibiotics, 2022) can be followed below.

Format in all cases: cell-based, Candida albicans
Assay [1] concerns C. albicans 256 HUSI-PUJ. The note with it: for MFC: 24 h; for MIC: 48 h. The method, then:
(§1) Antifungal susceptibility testing was carried out using the broth microdilution (BMD) method, following the CLSI M27-A3 guidelines with slight modifications. Briefly, cells (0.5–2.5 × 10^3 CFU/mL) were incubated with peptides (200, 100, 50, 25, 12.5, and 6.25 µg/mL) at 37 °C for 48 h. MICs were visualized and densitometry (595 nm, microplate reader, Bio-Rad, ᵢMark^TM) was used to determine the lowest concentration of peptide that caused a significant decrease (MIC/2 or ≥50%) compared with the growth control (cells incubated in absence of peptide) (n = 3). In order to verify that the peptides were able to kill the yeast cells, the plates were also evaluated for minimum fungicidal concentration (MFC). Briefly, aliquots from each well from susceptibility testing assays were transferred to plates containing Sabouraud dextrose agar (SDA), which were then incubated at 37 °C for 24 h. The highest dilution with no growth on the agar plate was considered to be the MFC.

The subject of assay [2] is C. albicans ATCC SC5314. The method, then:
as §1

For assay [3], the system named is C. albicans 256 HUSI-PUJ. As for the experimental part: (§2) The in vitro interactions between the peptides (C6, C8, and C9) and the FLC drug were evaluated in a checkerboard assay, as previously described by Cokol et al.. Briefly, each isolate was prepared by picking colonies from an overnight culture in SBD at 37 °C and suspended in a sterile normal saline PBS buffer. The fungal inoculum was adjusted to 0.5 MacFarland and the inoculum was adjusted to 0.5–2.5 × 10^3 CFU/mL. The drug-peptide combinations were formed over a range of concentrations: 0 (control) and 0.06 to 2 times the MIC [51]. The fractional inhibitory concentration index (FICI) was calculated as follows:
(§3) FICI=CML peptide in combination/CMI peptide alone+CML FLC in combination/CMI FLC alone
(§4) The calculated FICI was reported as synergy with values FICI ≤ 0.5, additive FICI > 0.5–1, indifference FICI > 1–4, and antagonism FICI ≥ 4 [52].
(§5) A synergistic effect was considered to be when the effect of the combination exceeded the effects of the individual components. An additive effect was when the effect of the combination was equal to the sum of the effects of the individual components.

Assay [4] has as its system C. albicans ATCC SC5314. The method, then:
as §2, §3, §4, §5
This is another data set of the same source.

Assay [5] has as its system C. albicans 256. The note with it: for Time-kill result: Fungicide concentration / Time-kill result: Fungistatic concentration: after 48 h of incubation, RPMI 1640, 37 °C, Bioscreen C. As for the experimental part:
(§6) A time-kill kinetic assay was carried out according to the method previously described by Pfaller and coworkers with minor modifications. The peptides (C5, C6, C8, and C9) diluted in RPMI were tested at a range of concentrations: 0 (control), 0.2, 0.5, 1, and 2 times the MIC value for each strain. The isolates were subcultured on SBD, and then an inoculum was adjusted to a 0.5–2.5 × 10^3 CFU/mL in an RPMI 1640 medium. Yeast inoculum (150 uL) was added to a 100-well plate containing serial dilutions of the peptides. The plates were incubated with agitation at 37 °C in a plate reader (Bioscreen C MBR automated turbidometric analyzer, Growth Curves Ltd., Helsinki, Finland), which takes hourly absorbance readings. Moreover, fluconazole MICs were used as a control. The readings were analyzed with Bioscreen software (Growth Curves USA, Piscataway, NJ, USA) and GraphPad Prism 8.0.1 (GraphPad Soft-ware, San Diego, CA, USA). Statistical comparisons were made using an analysis of variance (two-way ANOVA) followed by a Tukey–Kramer post hoc test. P values less than 0.005 were considered significant. […] Moreover, previously determined FLC MICs (data not shown) were used as a control.

Assay [6] deals with C. albicans SC5314. The note with it: for Time-kill result: Fungicide concentration / Time-kill result: Fungistatic concentration: after 48 h of incubation, RPMI 1640, 37 °C, Bioscreen C. As for the experimental part: as §6
The mark [7] stands for this setting: fungistatic = growth inhibition >70% for 48 h.
The mark [8] stands for this setting: time-kill curve, peptide at 12.5 µg/mL (4 µM).
Setting [9] is: FLC-resistant clinical isolate, aliquots plated on SDA, 37 °C, no growth.
The mark [10] stands for this setting: FLC-resistant clinical isolate, broth microdilution CLSI M27-A3, 37 °C, ≥50% decrease vs growth control, n = 3.
The mark [11] stands for this setting: FLC-sensitive reference strain, aliquots plated on SDA, 37 °C, 24 h, no growth.
The mark [12] stands for this setting: FLC-sensitive reference strain, broth microdilution CLSI M27-A3, 37 °C, 48 h, ≥50% decrease vs growth control, n = 3.

Read-outs that look alike come from different tables or passages of the source. Positions of bridges follow the written chain, without caps; N, C: chain ends. Non-standard residues stand in square brackets, D forms with d. Residues, ends and D or L forms follow the SMILES beside them. Chains are numbered I, II in the order given. No end group written: not given here. Ahx = NCCCCCC(=O)O

Turning to `CC(C)C[C@H](NC(=O)[C@H](CC(C)C)NC(=O)[C@H](CCCCN)NC(=O)[C@H](CCCCN)NC(=O)[C@H](CC(C)C)NC(=O)[C@H](CC(C)C)NC(=O)[C@H](CCCCN)NC(=O)CCCCCNC(=O)[C@H](CCCCN)NC(=O)[C@H](Cc1c[nH]c2ccccc12)NC(=O)[C@H](CCC(N)=O)NC(=O)[C@H](Cc1c[nH]c2ccccc12)NC(=O)[C@H](CCCCN)NC(=O)[C@@H](N)CCCCN)C(=O)N[C@@H](CCCCN)C(N)=O` [C7] (H-KKWQWK[Ahx]KLLKKLLK-NH2), the minimum fungicidal concentration (MFC) (usually the lowest tested concentration that kills the fungus rather than only halting it) in assay [1] (256 HUSI-PUJ) is recorded as > 101 µM; in assay [2] (ATCC SC5314, 24 h), > 101 µM. The MIC – broadly, the smallest concentration in the dilution series that meets the test's criterion for growth inhibition – came to 101 µM in assay [1] (256 HUSI-PUJ) and 101 µM in assay [2] (ATCC SC5314, 48 h).
`CC(C)C[C@H](NC(=O)[C@H](CC(C)C)NC(=O)[C@H](CCCNC(=N)N)NC(=O)[C@H](CCCNC(=N)N)NC(=O)[C@H](CC(C)C)NC(=O)[C@H](CC(C)C)NC(=O)[C@H](CCCNC(=N)N)NC(=O)CCCCCNC(=O)[C@H](CCCCNC(=O)[C@H](CCCNC(=N)N)NC(=O)[C@H](Cc1c[nH]c2ccccc12)NC(=O)[C@H](CCC(N)=O)NC(=O)[C@H](Cc1c[nH]c2ccccc12)NC(=O)[C@H](CCCNC(=N)N)NC(=O)[C@@H](N)CCCNC(=N)N)NC(=O)[C@H](CCCNC(=N)N)NC(=O)[C@H](Cc1c[nH]c2ccccc12)NC(=O)[C@H](CCC(N)=O)NC(=O)[C@H](Cc1c[nH]c2ccccc12)NC(=O)[C@H](CCCNC(=N)N)NC(=O)[C@@H](N)CCCNC(=N)N)C(=O)N[C@@H](CCCNC(=N)N)C(N)=O` [C9] (I: H-RRWQWRK[Ahx]RLLRRLLR-NH2 / II: H-RRWQWR; amide I:7-II:C; N-terminus assumed): the “MICa: MIC of the chimeric peptide alone” value in assay [3] (256 HUSI-PUJ) was 50 µg/mL; in assay [4] (ATCC SC5314) it was 100 µg/mL. Besides, the figures for the “MICa/A: factor by which the chimera is potentiated in combination” value in assay [3] (peptide combined with FLC) and in assay [4] (peptide combined with FLC) were 2 and 4, respectively. Besides, in assay [4] (checkerboard), the “Effect of the combination with FLC (by FICI)” value is listed as “synergistic”. Also, the Inhibition of growth result in assay [5] (256, 48 h) is reported as “more than 90%”; in assay [6] (SC5314, 48 h), “more than 90%”. The “Time-kill result: Fungicide concentration” value in assay [5] (fungicidal = yeast kill ≥99%) was 25 µg/mL; in assay [5] (value in brackets), 8 µM; in assay [6] (fungicidal = yeast kill ≥99%) it was 25 µg/mL; in assay [6] (value in brackets), 8 µM. For the same compound, the “Time-kill result: Fungistatic concentration” value in assay [5] (setting [7]) is 13 µg/mL; in assay [5] (value in brackets), 4 µM; in assay [6] (setting [7]), 13 µg/mL; in assay [6] (value in brackets), 4 µM. Further, the “Incubation time up to which strain growth was completely inhibited” value in assay [5] (setting [8]) and in assay [6] (setting [8]) was “approximately 20 h” throughout. Also, the MFC is 15 µM in assay [1] (256 HUSI-PUJ); 50 µg/mL in assay [1] (setting [9]); 15 µM in assay [2] (ATCC SC5314, 24 h); 50 µg/mL in assay [2] (setting [11]). The MIC is on record as 15 µM in assay [1] (256 HUSI-PUJ); 50 µg/mL in assay [1] (setting [10]); 15 µM in assay [2] (ATCC SC5314, 48 h); 50 µg/mL in assay [2] (setting [12]).
Consider `CC(C)C[C@H](NC(=O)[C@H](CC(C)C)NC(=O)[C@H](CCCNC(=N)N)NC(=O)CCCCCNC(=O)[C@H](CCCNC(=N)N)NC(=O)[C@H](Cc1c[nH]c2ccccc12)NC(=O)[C@H](CCC(N)=O)NC(=O)[C@H](Cc1c[nH]c2ccccc12)NC(=O)[C@H](CCCNC(=N)N)NC(=O)[C@@H](N)CCCNC(=N)N)C(=O)N[C@@H](CCCNC(=N)N)C(N)=O` [C2] (H-RRWQWR[Ahx]RLLR-NH2; N-terminus assumed), for which the minimum fungicidal concentration (MFC) is given as > 122 µM in assay [1] (256 HUSI-PUJ); > 200 µg/mL in assay [1] (setting [9]); > 122 µM in assay [2] (ATCC SC5314, 24 h); > 200 µg/mL in assay [2] (setting [11]). In addition, the MIC in assay [1] (256 HUSI-PUJ) is 122 µM; in assay [1] (setting [10]) it was 200 µg/mL; in assay [2] (ATCC SC5314, 48 h), 122 µM; in assay [2] (setting [12]), 200 µg/mL.
As for “RLLRRLLR [BFII (32–35)Pal, reference compound]”, the MFC in assay [1] (256 HUSI-PUJ) is > 183 µM; in assay [2] (ATCC SC5314, 24 h), > 183 µM. Also, the MIC in assay [1] (256 HUSI-PUJ) is reported as > 183 µM; in assay [2] (ATCC SC5314, 48 h), > 183 µM.
Take RRWQWRRLLR-NH2 [C1]: the MFC was > 131 µM in assay [1] (256 HUSI-PUJ) and > 131 µM in assay [2] (ATCC SC5314, 24 h). Also, the MIC in assay [1] (256 HUSI-PUJ) amounted to 66 µM; in assay [2] (ATCC SC5314, 48 h), 131 µM.
As for `CC(C)C[C@H](NC(=O)[C@H](CC(C)C)NC(=O)[C@@H](N)CCCNC(=N)N)C(=O)N[C@@H](CCCNC(=N)N)C(=O)NCCCCCC(=O)N[C@@H](CCCNC(=N)N)C(=O)N[C@@H](CCCNC(=N)N)C(=O)N[C@@H](Cc1c[nH]c2ccccc12)C(=O)N[C@@H](CCC(N)=O)C(=O)N[C@@H](Cc1c[nH]c2ccccc12)C(=O)N[C@@H](CCCNC(=N)N)C(N)=O` [C4] (H-RLLR[Ahx]RRWQWR-NH2; N-terminus assumed), the MFC in assay [1] (256 HUSI-PUJ) is on record as > 122 µM; in assay [1] (setting [9]) it was > 200 µg/mL; in assay [2] (ATCC SC5314, 24 h), > 122 µM; in assay [2] (setting [11]), > 200 µg/mL. Further, the MIC was 122 µM in assay [1] (256 HUSI-PUJ); 200 µg/mL in assay [1] (setting [10]); > 122 µM in assay [2] (ATCC SC5314, 48 h); > 200 µg/mL in assay [2] (setting [12]).
